Results from publication PMC9358669, “Native metabolomics identifies the rivulariapeptolide family of protease inhibitors” (Nature Communications, 2022).
Entries after “also recorded” stand apart in the source; their conditions may differ. Starred links: 1 amine or outer side, 2 acyl side, 3 side chain; linkers in the order of their positions; H or OH if unused. Positions of bridges follow the written chain, without caps; N, C: chain ends. Non-standard residues stand in square brackets, D forms with d. Residues, ends and D or L forms follow the SMILES beside them. *: point of attachment. Leu(3R-OH,Nα-propionyl) = CCC(=O)N[C@H](C(=O)*)[C@H](O)C(C)C; X1 = CC(C)[C@@H](O[*:3])[C@H](N[*:1])C(=O)[*:2]; NMeT = CN[C@H](C(=O)O)[C@@H](C)O; dPhLac = O=C(O)[C@H](O)Cc1ccccc1; NMeA = CN[C@@H](C)C(=O)O; NMeDha = C=C(NC)C(=O)O

biological target: T1, Chymotrypsin (Bos taurus, UniProt P00766); assay: Native metabolomics / native MS detection of chymotrypsin-ligand complexes; format: binding; conditions: control compounds pooled at 10 µg/mL
T1 construct: purchased Sigma-Aldrich
Protocol: For native metabolomics experiments, the same chromatographic parameters were used and in addition, 220 µL/min (setup A) or 150 µL/min (setup B) ammonium acetate buffer was infused post-column through a make-up pump and a PEEKT-splitter and enzyme solution was infused with 2 µL/min flow rate via the integrated syringe pump. ESI settings were set to 40 arb. units sheath gas flow, the auxiliary gas flow was set to 10 arb. units and sweep gas flow was set to 0 arb. units. The auxiliary gas temperature was set to 150 °C. The spray voltage was set to 3 kV and the inlet capillary was heated to 253 °C. S-lens level was set to 30 V applied. MS scan range was set to 2000-4000 m/z (setup A) and 2500–4000 m/z (setup B) with a resolution Rm/z 200 140,000 (setup A) and 120,000 (setup B) with 2 microscans. MS acquisition was performed in all-ion fragmentation (AIF) mode with Rm/z 200 with 20% HCD collision energy and an isolation window of 2000 –4000 m/z (setup A) or 2500–4000 m/z (setup B).
For native LC-MS data, multiple charged spectra were deconvoluted using the Xtract algorithm in Qualbrowser, part of the Xcalibur software (Thermo Scientific) and also using FLASHDeconv (version 2.0Beta) {Jeong, K. et al. FLASHDeconv: Ultrafast, High-Quality Feature Deconvolution for Top- Down Proteomics. Cell Syst 10, 213-218 e216 (2020).}. For Xtract algorithm, both deconvoluted native LC-MS and metabolomics LC-MS/MS.raw files were converted to the centroid.mzML file format using MSconvert of the proteowizard software package. For FLASHDeconv, the raw files were converted into centroid m/zML again using MSconvert software first. Then the converted mzML files were deconvolved to generate deconvolved.mzML format files. Feature finding of both file types was performed using a modified version of MZmine2.37 (corr.17.7). Feature tables from both intact protein mass and metabolomics data were matched by their retention time (RT) and an m/z offset corresponding to the mass of chymotrypsin (25234 Da) with an RT tolerance of 0.2 min and a mass tolerance of 4 Da.
To optimize ESI setting as well as the influence of NH4Acetate concentration and pH, we used molassamide as a test compound. For optimization of ESI settings, we performed flow injections without a column and ramped ESI aux gas temperature, in-source CID energy, S-lense RF voltage. Optimization of pH values over the entire LC gradient and peak intensities were both assessed using three different make-up buffers. Make-up buffer 1 was water, make-up buffer 2 was 10 mM NH4Acetate buffer, and make-up buffer 3 was 10 mM NH4Acetate buffer + 0.2% ammonium hydroxide, v/v. Effects of NH4Acetate concentration was assessed with an online mixed make-up flow (using Experimental Setup B) with the low-pressure gradient pump. As solvent A we used LC-MS grade water and 100 mM NH4Acetate as solvent B. Molassamide was prepared as 100 µM solutions from a 10 mM stock solution in DMSO by preparing a 1:100 dilution into solvent mixture 1 (water + 10% acetonitrile + 0.1% formic acid). Samples were analyzed as described in micro-flow LC-MS/MS data acquisition (setup A); 2 µL of each solution were injected into the mass spectrometer, while chymotrypsin (Sigma), dissolved in water to a final concentration of 2 mg/mL, was injected through the syringe pump at a flow rate of 2 µL/min. pH values were assessed by disconnecting the flow to the source and collecting ~30 µL of solvent every minute, then testing this value on pH paper.
Molassamide was prepared as 100 µM solutions from a 10 mM stock solution in DMSO by preparing a 1:100 dilution into solvent mixture 1 (water + 10% acetonitrile + 0.1% formic acid). From this 100 µM solution, dilutions were prepared at 10, 1, and 0.1 µM into solvent mixture 1. 2 µL of each solution were injected into the mass spectrometer. […]

For C=C1C(=O)N[C@@H](C)C(=O)N(C)[C@@H](C)C(=O)N[C@@H]([C@H](OC(=O)[C@@H](NC(=O)CC)[C@H](O)C(C)C)C(C)C)C(=O)N(C)[C@@H]([C@@H](C)OC)C(=O)O[C@H](C(C)C)[C@H](NC(C)=O)C(=O)O[C@H](Cc2ccccc2)C(=O)N1C [FR900359] (Ac-[X1][dPhLac][NMeDha]A[NMeA][X1](Leu(3R-OH,Nα-propionyl))[NMeT](Me); ester 1-C), the “binding to chymotrypsin under native MS conditions” value (from here on “binding to chymotrypsin”) was “did not observe the binding; also recorded: no binding”.
In the case of CC[C@H](C)[C@@H](C(=O)O[C@@H](CC(C)C)C(=O)N[C@@H](CC(C)C)C(=O)N[C@@H](C)/C=C/C(=O)N1C(=O)C=C(OC)[C@@H]1C)N(C)C [gallinamide A], the “binding to chymotrypsin” value is reported as “did not observe the binding; also recorded: no binding”.
With O=c1c(-c2ccc(O)cc2)coc2cc(O)cc(O)c12 [genistein] the “binding to chymotrypsin” value was “did not observe the binding; also recorded: no binding”.
For Oc1cc(O)cc(O)c1 [phloroglucinol], the “binding to chymotrypsin” value was “did not observe the binding; also recorded: no binding”.
With O=C1c2ccc(O)c(O)c2C(=O)c2c(O)ccc(O)c21 [quinalizarin] the “binding to chymotrypsin” value was “did not observe the binding; also recorded: no binding”.

system: Chymotrypsin; assay: not given; parameters: method as in earlier work; conditions: Supplementary Table 5, Top 50 chymotrypsin inhibitors among Ahp-cyclodepsipeptides; cited from earlier work

Going from CCCC(=O)N[C@@H](CCC(N)=O)C(=O)N[C@@H]1C(=O)N[C@@H](CCCNC(N)=O)C(=O)N[C@H]2CC[C@@H](O)N(C2=O)[C@@H]([C@@H](C)CC)C(=O)N(C)[C@@H](Cc2ccc(OC)c(Br)c2)C(=O)N[C@@H](C(C)C)C(=O)O[C@@H]1C [Symplocamide A] to C/C=C1\NC(=O)[C@@H](NC(=O)[C@@H](NC(=O)[C@H](C)NC(=O)C/C(C)=C/Cl)[C@@H](C)CC)[C@@H](C)OC(=O)[C@H](C(C)C)NC(=O)[C@H](Cc2ccc(O)cc2)N(C)C(=O)[C@H](Cc2ccccc2)N2C(=O)[C@H](CC[C@H]2O)NC1=O [Tutuilamide A], the IC50 rises from 380 nM to 1000 nM (2.6-fold). The first is the more potent here.

Compared with C/C=C1\NC(=O)[C@@H](NC(=O)[C@@H](NC(=O)[C@H](C)NC(=O)C/C(C)=C/Cl)C(C)C)[C@@H](C)OC(=O)[C@H](C(C)C)NC(=O)[C@H](Cc2ccc(O)cc2)N(C)C(=O)[C@H](Cc2ccccc2)N2C(=O)[C@H](CC[C@H]2O)NC1=O [Tutuilamide B], Crocapeptin B is 2.9-fold lower in IC50: 577 nM for the first, 200 nM for the second.

Cyanopeptolin CP978 and Cyanopeptolin CP992 are within 1.5-fold of each other in IC50: 260 nM for the first, 240 nM for the second.

First: Cyanopeptolin CP1018
Second: Dinghupepeptin B
The IC50 of the first is 4.6-fold lower: 240 nM for the first, 1100 nM for the second.

Compared with Loggerpeptin A, Micropeptin 88-A is 1.7-fold higher in IC50: 240 nM for the first, 400 nM for the second.

Micropeptin 88-Y and Micropeptin KB991 are within 1.5-fold of each other in IC50: 1300 nM for the first, 870 nM for the second.

First: Micropeptin KB1048
Second: Micropeptin MM850
The IC50 of the first is 2.7-fold lower: 630 nM for the first, 1700 nM for the second.

First: Micropeptin T-20
Second: Tutuilamide C
The IC50 of the first is 220-fold lower: 2.5 nM for the first, 542 nM for the second.

same assay, conditions: cited from earlier work

For Microcystin 996, the IC50 is listed as 640 nM.
